Data reported in patent publication US6599900B2, “1-oxa-3,9-diaza-spiro[5,5]undecan-2-ones” (Syntex (U.S.A.) LLC, priority 2001, dated 2003).

Target: T1, human NK1 receptor (Homo sapiens, UniProt P25103)
T1 construct: expressed in transfected cells; host or cells: CHO cells infected with the Semliki virus expression system; membrane suspension used
Experiment: [3H]substance P binding at human NK1 receptors in CHO cells
Conditions: affinity to the NK-1 receptor; [3H]substance P 0.6 nM displacement, CHO cell membranes, 60 min at room temperature
Procedure: The affinity of test compounds for the NK1 receptor was evaluated at human NK1 receptors in CHO cells infected with the human NK1 receptor (using the Semliki virus expression system) and radiolabelled with [^3H]substance P (final concentration 0.6 nM). Binding assays were performed in HEPES buffer (50 mM, pH 7.4) containing BSA (0.04%) leupeptin (8 μg/ml), MnCl2 (3 mM) and phosphoramidon (2 μM). Binding assays consisted of 250 μl of membrane suspension (1.25×10^5 cells/assay tube), […] of buffer of displacing agent and 125 μl of [^3H]substance P. Displacement curves were determined with at least seven concentrations of the compound. The assay tubes were incubated for 60 min at room temperature after which time the tube contents were rapidly filtered under vacuum through GF/C filters presoaked for 60 min with PEI (0.3%) with 2×2 ml washes of HEPES buffer (50 mM, pH 7.4). The radioactivity retained on the filters was measured by scintillation counting. All assays were performed in triplicate in at least 2 separate experiments.

T1 sequence (P25103 whole entry): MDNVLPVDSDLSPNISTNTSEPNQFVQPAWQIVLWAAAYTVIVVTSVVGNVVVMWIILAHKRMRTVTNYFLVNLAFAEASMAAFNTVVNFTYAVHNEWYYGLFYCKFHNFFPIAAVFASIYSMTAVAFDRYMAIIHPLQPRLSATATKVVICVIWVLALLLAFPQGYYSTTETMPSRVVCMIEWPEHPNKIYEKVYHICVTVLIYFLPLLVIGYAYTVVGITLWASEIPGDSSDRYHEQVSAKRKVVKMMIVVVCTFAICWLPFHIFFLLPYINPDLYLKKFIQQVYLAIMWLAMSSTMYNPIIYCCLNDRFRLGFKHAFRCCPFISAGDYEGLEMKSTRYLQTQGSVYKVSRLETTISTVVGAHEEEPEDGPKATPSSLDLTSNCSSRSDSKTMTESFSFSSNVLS

Row | Ki [µM] | SMILES
1 | 0.0115 | O=C1OC2(CCN(C(=O)c3cc(C(F)(F)F)cc(C(F)(F)F)c3)CC2)C(c2ccc(F)c(F)c2)CN1CC(F)F (racemic) [Example 15, (5RS)-9-(3,5-bis-trifluoromethyl-benzoyl)-3-(2,2-difluoro-ethyl)-5-(3,4-difluoro-phenyl)-1-oxa-3,9-diaza-spiro[5.5]undecan-2-one]
2 | 0.0309 | CN1CC(c2ccc(F)c(F)c2)C2(CCN(C(=O)c3cc(C(F)(F)F)cc(C(F)(F)F)c3)CC2)OC1=O (racemic) [Example 20, (5RS)-9-(3,5-bis-trifluoromethyl-benzoyl)-5-(3,4-difluoro-phenyl)-3-methyl-1-oxa-3,9-diaza-spiro[5.5]undecan-2-one]
